Results on five molecules are retold here after patent US20100087374A1, “Methods for Treatment and Diagnosis of Pulmonary Diseases Based on the Expression of SERCA2 Protein” (priority 2008, published 2010).

The subject of one series is IL-8 and GM-CSF release. As to the kind of experiment: Ozone-mediated cytokine release with extracellular nucleotide supplementation. It counts as cell-based, human. How it is done:
Ozone-mediated cytokine release was studied in polarized air-liquid interface cultures of non-CF and CF cell lines. 16HBEo- and CF4lo- cells were cultured on collagen coated 30 mm inserts. Once cells were polarized (8-10 days in culture) cells were exposed to 0, 100 or 200 ppb ozone with 200 μl media on the apical surface. At the end of exposure (18 h) additional 200 μl media was added to the apical surface. Aliquots were collected after 4 h and analyzed for the cytokine as described before. […] Apical media was collected and analyzed for IL-8 and GM-CSF.

The test system of series [1] is Primary human bronchial epithelial cells. Kind of series: Cell death after ozone exposure with CFTRinh172. The series is classed as cell-based. The note with it: 20 μM. How it is done: For assessing ozone toxicity, primary human airway epithelial cells were transfected either with a control or SERCA2 siRNA for 24 h and exposed to 0 ppb or 200 ppb ozone for 18 h. Following exposure, cells were analyzed for cell death using Vybrant apoptosis assay kit (Molecular Probes, Eugene, Oreg.), as described before (63). In this method, apoptotic cells bearing phosphatidylserine in the plasma membrane outer leaflet were identified as those binding Alexa Fluor 488-labeled annexin V and necrotic cells as those binding fluorescent DNA-binding dye SYTOX Green. The Alexa Fluor-488 labeled annexin-positive apoptotic and Sytox green-positive dead cells were quantified by flow cytometry. The columns represent means of data and * indicates significant difference (p<0.05) from 0 ppb controls cells. # indicates significant difference from 200 ppb controls (n=3). This experiment was repeated 4 times.
Exposure of airway epithelial cells to ozone at precise levels was carried out in a computer controlled in vitro exposure chamber as described previously (78). Primary human bronchial epithelial cells cultured on collagen-coated 6-well plates were treated with 20 μM CFTRinh172 for 30 min and then exposed to either 0 ppb (−) or 200 ppb (+) ozone. ATP content of the extracellular media was analyzed after 30 min and cell death was estimated after 8 h of ozone exposure as described in the Methods. […]

Series [2] deals with primary human bronchial epithelial (HBE), C-38 and IB3-1 cells. Kind of series: Cytotoxicity of 24 h CFTRinh172 incubation. It counts as cell-based. The note with it: 20 μM.
Series [3] relates to Primary human bronchial epithelial cells. As to the kind of experiment: Ozone-mediated extracellular ATP release with CFTRinh172. The series is classed as cell-based. The note with it: 20 μM for 30 min, then 200 ppb ozone 30 min. How it is done: Exposure of airway epithelial cells to ozone at precise levels was carried out in a computer controlled in vitro exposure chamber as described previously (78). Primary human bronchial epithelial cells cultured on collagen-coated 6-well plates were treated with 20 μM CFTRinh172 for 30 min and then exposed to either 0 ppb (−) or 200 ppb (+) ozone. ATP content of the extracellular media was analyzed after 30 min and cell death was estimated after 8 h of ozone exposure as described in the Methods. The data shown is a representative of 3 experiments (n=6). The bars represent means (SEM) of data and * indicates significant difference (p<0.05) from 0 ppb (− ozone) controls and # indicates significant difference (p<0.05) from 200 ppb exposed cells without CFTRinh172.

The next series relates to SERCA2 protein. Kind of series: SERCA2 protein expression by Western blot after CFTRinh172 treatment. It counts as cell-based, human. The note with it: 20 μM, 24 h.
For series [4], the system named is IL-8 release. Kind of series: Ozone-mediated IL-8 release with NF-κB inhibitor preincubation. It counts as cell-based, human. The note with it: CF cells; 10 μM preincubation 30 min; ozone 18 h. How it is done: Ozone-mediated cytokine release was studied in polarized air-liquid interface cultures of non-CF and CF cell lines. 16HBEo- and CF4lo- cells were cultured on collagen coated 30 mm inserts. Once cells were polarized (8-10 days in culture) cells were exposed to 0, 100 or 200 ppb ozone with 200 μl media on the apical surface. At the end of exposure (18 h) additional 200 μl media was added to the apical surface. Aliquots were collected after 4 h and analyzed for the cytokine as described before.
Results are shown in FIG. 18; IL-8 (18A), G-CSF (18B) or GM-CSF (18C). Values are means±SE; n=6, and the figure is a representative of 4 individual experiments; * Significant difference from 0 ppb control, P<0.05 and # Significant difference from non-CF, P<0.05. Effect of preincubation of cells for 30 min with 10 μM [6-amino-4-(4-phenoxyphenylethylamino)quinazoline] For analysis of NF-κB activation, nuclear p65 was measured in non-CF and CF cells after exposure to ozone (E). As described above, cells were harvested and nuclear lysates were prepared after exposure to 200 ppb ozone. The cellular fractions were assessed for p65. Values are means±SE; n=6 and the data is a representative of 2 individual experiments; * Significant difference from 0 ppb control, P<0.05 and # Significant difference from non-CF, P<0.05.

Series [5] relates to IL-8 release. Kind of series: IL-8 release after thapsigargin preincubation and ozone. It counts as cell-based, human. The note with it: primary airway epithelial cells. How it is done: Primary airway epithelial cells were cultured on collagen coated 6-well plates. Cells were preincubated with 2 μM thapsigargin for 30 min and then exposed to 200 ppb ozone for 18 h. The supernatant media was collected and analyzed for cytokines as described before. Values are means±SE; n=6 and the data is a representative of 2 individual experiments; * Significant difference from 0 ppb control, P<0.05 and # Significant difference from ozone exposed untreated cells, P<0.05.

The mark [6] stands for this setting: CF45o- cells, 10 μM preincubation 30 min, ozone 200 ppb, 18 h.

Regarding `Nc1ncnc2c1ncn2[C@@H]1O[C@H](COP(=O)(O)OP(=O)(O)OP(=O)(O)O)[C@@H](O)[C@H]1O` [ATP], in the series on IL-8 and GM-CSF release (setting [6]), the GM-CSF release entry is given as “enhanced” and the IL-8 release result is listed as “enhanced”.

Regarding `O=C(O)c1ccc(/C=C2\SC(=S)N(c3cccc(C(F)(F)F)c3)C2=O)cc1` [CFTRinh172], the “cytotoxicity of inhibitor itself” value in series [1] (0 ppb ozone) was “negligible cytotoxicity”. In addition, in series [1] (200 ppb ozone 8 h), the “cell death in ozone” value is “further enhanced the cell death”. Further, in series [2], the cytotoxicity entry is “did not cause cytotoxicity”. Besides, the “Ozone-mediated release of ATP” value in series [3] is given as “completely abolished”. Besides, in the series on SERCA2 protein (parent CF cell line IB3-1), the SERCA2 expression entry is “did not cause a further decrease”. The SERCA2 protein levels entry in the series with SERCA2 protein (primary human bronchial epithelial (HBE) cells, air-liquid interface) is “significant decrease”; in the series with SERCA2 protein (wt-CFTR-corrected C-38 cells) it was “significant decrease”.

Turning to `Nc1ccc2ncnc(NCCc3ccc(Oc4ccccc4)cc3)c2c1` [NF-kB inhibitor, 6-amino-4-(4-phenoxyphenylethylamino)quinazoline], in the series with IL-8 release [4], the “IL-8 levels in ozone” value is recorded as “drop to control values”.

For `C/C=C(/C)C(=O)O[C@H]1C(C)=C2[C@H]([C@@H]1OC(=O)CCCCCCC)[C@@](C)(OC(C)=O)C[C@H](OC(=O)CCC)[C@@]1(O)[C@H]2OC(=O)[C@@]1(C)O` [Thapsigargin, thapsigargin], the “ozone mediated IL-8 release” value in the series on IL-8 release [5] (2 μM for 30 min, then 200 ppb ozone 18 h) was “further augmented”. Besides, the IL-8 release entry with IL-8 release [5] (2 μM, control, 0 ppb exposed cells) is “enhanced”.

On to `O=c1ccn([C@@H]2O[C@H](COP(=O)(O)OP(=O)(O)OP(=O)(O)O)[C@@H](O)[C@H]2O)c(=O)[nH]1` [UTP], for which the ozone-mediated cytokine release entry in the series with IL-8 and GM-CSF release (CF cells, data not shown) is listed as “enhanced”.
